Consider eight compounds from article PMC11589570, “Critical assessment of LC3/GABARAP ligands used for degrader development and ligandability of LC3/GABARAP binding pockets” (Nature Communications, 2024).

For test [1], the target named is T1, NanoLuc-fusion full-length LC3A (Homo sapiens, UniProt Q9H492).
T1 construct: a fluorescent donor (in this case full length LC3A and LC3B); expressed in transfected cells; host or cells: HEK293T (ATCC; CRL-11268)
The test can be described thus: NanoBRET cellular target engagement assay in HEK293T cells. Format: cell-based. Here is the method:
(§1) NanoBRET cellular target engagement assay: Constructs contained the cDNA of full-length LC3A and LC3B cloned in frame with an N-terminal NanoLuc-fusion. Plasmids were transfected into HEK293T (ATCC; CRL-11268) cells using FuGENE HD (Promega, E2312) and proteins were allowed to express for 20 h. 10O5 and 8F20-based tracers were titrated to the protein as depicted in Supplementary Fig. 4d. For competition experiments, 1 µM of the tracers was pipetted into white 384-well plates (Greiner 781 207) using an Echo 550 acoustic dispenser (Labcyte) containing LC3A/LC3B expressing transfected cells at a density of 2.5 × 10^5 cells/mL in Opti-MEM without phenol red (Life Technologies). The system was allowed to equilibrate for 2 h at 37 °C and 5% CO2 prior to BRET measurements. To measure BRET, NanoBRET NanoGlo Substrate + Extracellular NanoLuc Inhibitor (Promega, N2540) was added as per the manufacturer’s protocol, and filtered luminescence was measured on a PHERAstar plate reader (BMG Labtech) equipped with a luminescence filter pair (450 nm BP filter (donor) and 610 nm LP filter (acceptor)). Competitive displacement data were then plotted using GraphPad Prism 9.3 software using a normalized 3-parameter curve fit. A detailed step-by-step protocol for this assay is described in Schwalm..
(BRET reads energy transfer from a luciferase to a nearby fluorophore.)

The target of test [2] is T2, NanoLuc-fusion full-length LC3B (Homo sapiens, UniProt Q9GZQ8).
T2 construct: a fluorescent donor (in this case full length LC3A and LC3B); expressed in transfected cells; host or cells: HEK293T (ATCC; CRL-11268)
The test is described as above. Format: cell-based. Here is the method: as §1

For test [3], the target named is T3, LC3A (Homo sapiens, UniProt Q9H492). As to the kind of experiment: FP assay with 10O5- and 8F20-based dye-linked tracers 16 and 17. The following applies: LC3A.
Source text: The only experimental difference in our FP assay setup was the addition of 0.05% Tween-20, which is routinely used[27] to suppress unspecific binding of compounds to proteins.
Fluorescence polarization assay utilizing tracers 16 and 17 for interaction studies with LC3A
(upper panels) and LC3B (lower panels). The left panels depict protein titration measurements
detergent in the buffer to suppress unspecific binding. Middle panels depict displacement
Data were collected in technical
triplicates with error bars expressing the SD (n=3).
In test [4] the target is T4, LC3B (Homo sapiens, UniProt Q9GZQ8). Described as above. The following applies: LC3B.
Test [5] addresses T3, LC3A. As to the kind of experiment: FP assay with Cy5-labelled p62 LIR tracer (protein titration and tracer displacement). Type of test: binding. Conditions: for % tracer bound @LC3A: LC3A tracer displacement, normalized on p62-LIR positive control; for compound titration LC3A (displacement curve, FP signal): two replicate columns per compound.
Test [6] deals with T4, LC3B. The description is as above. Format: binding. The following applies: for normalized FP signal, p62 LIR tracer displacement: LC3B; for compound titration LC3B (displacement curve, FP signal): two replicate columns per compound.
The target of another test is LC3C (Homo sapiens, UniProt Q9BXW4). The test is described as above. Type of test: binding. The following applies: two replicate columns per compound.
LC3C, sequence (Q9BXW4 1-126): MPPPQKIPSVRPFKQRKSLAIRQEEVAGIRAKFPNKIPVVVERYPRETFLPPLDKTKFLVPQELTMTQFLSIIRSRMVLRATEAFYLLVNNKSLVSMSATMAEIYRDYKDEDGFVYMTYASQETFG
In another test the target is GABARAP (Homo sapiens, UniProt O95166). The description is as above. Type of test: binding. The following applies: two replicate columns per compound.
GABARAP, sequence (O95166 1-116): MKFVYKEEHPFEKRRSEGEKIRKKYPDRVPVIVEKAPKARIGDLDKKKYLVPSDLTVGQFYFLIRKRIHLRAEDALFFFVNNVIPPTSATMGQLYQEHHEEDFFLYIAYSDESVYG
The next test concerns the target GABARAPL1 (Homo sapiens, UniProt Q9H0R8). Described as above. The following applies: for compound titration GABARAPL1 (displacement curve, FP signal): two replicate columns per compound; for FP tracer displacement curve signal (compound titration): duplicate values, listed as KT3. Type of test: binding.
Where [7] appears, read: 0.05% Tween20 supplemented buffer.
Where [8] appears, read: log10 concentration [M] -3.82391.
Where [9] appears, read: log10 concentration [M] -4.1549.
Setting [10] is: log10 concentration [M] -4.60206.
Setting [11] is: log10 concentration [M] -5.30103.
[12] abbreviates: log10 concentration [M] -5.69897.
Setting [13] is: log10 concentration [M] -6.22185.
Where [14] appears, read: log10 concentration [M] -6.69897.
Where [15] appears, read: log10 concentration [M] -7.30103.
Where [16] appears, read: log10 concentration [M] -7.79588.
The mark [17] stands for this setting: log10 concentration [M] -8.08092.

SMILES strings stand for the structures. Where “and” joins values, the source holds several entries; their conditions need not be identical. Identical values can stand only once.

GABARAPL1, sequence (Q9H0R8 whole entry): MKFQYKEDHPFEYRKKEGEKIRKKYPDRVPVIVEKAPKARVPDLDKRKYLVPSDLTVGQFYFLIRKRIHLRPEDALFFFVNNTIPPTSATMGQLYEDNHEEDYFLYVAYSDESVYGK

For the compound `Cc1ccc(C(=O)N(CCCNC(=O)CCOCCOCCOCCNC(=O)CCc2ccc3n2[B-](F)(F)[N+]2=C(c4ccc[nH]4)C=CC2=C3)[C@@H](c2nc3cc(Cl)ccc3c(=O)n2Cc2ccccc2)C(C)C)cc1` [compound 17, (R)-N-(1-(3-benzyl-7-chloro-4-oxo-3,4-dihydroquinazolin-2-yl)−2-methylpropyl)-N-(1-(5,5-difluoro-7-(1H-pyrrol-2-yl)−5H−5l4,6l4-dipyrrolo[1,2-c:2’,1’-f][1,3,2]diazaborinin-3-yl)−3,16-dioxo-7,10,13-trioxa-4,17-diazaicosan-20-yl)−4-methylbenzamide], the “NanoBRET signal / tracer displacement” value in test [1] (LC3A, 1 µM tracer, compound 4 for tracer 16, compound 3 for tracer 17) is “no BRET signal”; in test [2] (LC3B, 1 µM tracer, compound 4 for tracer 16, compound 3 for tracer 17), “no BRET signal”. The “maximum BRET increase in tracer titration” value in test [1] (NanoLuciferase-tagged LC3A) and in test [2] (NanoLuciferase-tagged LC3B) was ~ 1.3 fold each time. Moreover, the “tracer binding in repeated protein titration” value on LC3A [3] (setting [7]) and on LC3B [4] (setting [7]) was “completely abolishing the putative binding” in each case. The “tracer affinity (protein titration for tracer KD)” value at LC3A [3] (buffer lacking detergent) and on LC3B [4] (buffer lacking detergent) was “nanomolar” throughout.
In the case of `CCCCCCC(Sc1nc(Cl)cc(Nc2nc(-c3ccc(C(F)(F)F)cc3)cs2)n1)C(=O)O` (stereo not shown) [TH084], at LC3A [5], the “% tracer bound @LC3A” value is 76%.
For `Cc1ccc(S(=O)(=O)Nc2cc(SCC(=O)O)c(O)c3ccccc23)c(C)c1` [compound 10], the “compound titration LC3A (displacement curve, FP signal)” value on LC3A [5] (setting [8]) is 94.4737 and 100; at LC3A [5] (setting [9]) it was 97.6316 and 101.053; on LC3A [5] (setting [10]), 101.579 and 103.947; at LC3A [5] (log10 concentration [M] -5) it was 101.842 and 104.737; at LC3A [5] (setting [11]), 100.789 and 103.421; at LC3A [5] (setting [12]) it was 102.895 and 93.1579. For the same compound, the “compound titration LC3A (displacement curve, FP signal)” value was 105 and 102.368 on LC3A [5] (setting [13]); 102.368 and 100 at LC3A [5] (setting [14]); 104.211 and 92.8947 at LC3A [5] (setting [15]); 101.579 and 94.2105 on LC3A [5] (setting [16]); 105 and 96.5789 on LC3A [5] (setting [17]). Also, the “normalized FP signal, p62 LIR tracer displacement” value at LC3B [6] (setting [8]) is 54.7368 and 57.3684; at LC3B [6] (setting [9]), 91.8421 and 94.4737; on LC3B [6] (setting [10]), 99.4737 and 97.8947; at LC3B [6] (log10 concentration [M] -5) it was 98.6842 and 95; at LC3B [6] (setting [11]), 95 and 96.0526; on LC3B [6] (setting [12]) it was 96.5789 and 95.2632. The “normalized FP signal, p62 LIR tracer displacement” value at LC3B [6] (setting [13]) is 93.4211 and 99.4737; on LC3B [6] (setting [14]) it was 97.3684 and 96.8421; on LC3B [6] (setting [15]) it was 102.368 and 100.789; on LC3B [6] (setting [16]), 96.3158 and 98.1579; on LC3B [6] (setting [17]), 102.632 and 92.6316. The “compound titration LC3B (displacement curve, FP signal)” value at LC3B [6] (setting [8]) was 54.7368 and 57.3684; on LC3B [6] (setting [9]), 91.8421 and 94.4737; on LC3B [6] (setting [10]) it was 99.4737 and 97.8947; on LC3B [6] (log10 concentration [M] -5), 98.6842 and 95; on LC3B [6] (setting [11]), 95 and 96.0526; at LC3B [6] (setting [12]), 96.5789 and 95.2632. The “compound titration LC3B (displacement curve, FP signal)” value on LC3B [6] (setting [13]) is 93.4211 and 99.4737; on LC3B [6] (setting [14]), 97.3684 and 96.8421; at LC3B [6] (setting [15]) it was 102.368 and 100.789; at LC3B [6] (setting [16]) it was 96.3158 and 98.1579; at LC3B [6] (setting [17]), 102.632 and 92.6316. The “compound titration LC3C (displacement curve, FP signal)” value on LC3C (setting [8]) was 22.4 and 20.2; on LC3C (setting [9]), 56.4 and 57.6; on LC3C (setting [10]), 96.2 and 100.8; on LC3C (log10 concentration [M] -5), 96.2 and 98.8; on LC3C (setting [11]) it was 97.8 and 100.6; at LC3C (setting [12]), 90 and 87.6. Besides, the “compound titration LC3C (displacement curve, FP signal)” value at LC3C (setting [13]) is 95.8 and 98.8; on LC3C (setting [14]) it was 98.6 and 99.4; at LC3C (setting [15]), 79.6 and 99.8; on LC3C (setting [16]), 95.2 and 97.2; at LC3C (setting [17]), 99 and 100.4. Also, the “compound titration GABARAP (displacement curve, FP signal)” value on GABARAP (setting [8]) is 16.2069 and 14.4828; at GABARAP (setting [9]), 54.3103 and 56.3793; on GABARAP (setting [10]), 99.3103 and 96.0345; at GABARAP (log10 concentration [M] -5) it was 94.4828 and 101.034; on GABARAP (setting [11]) it was 97.931 and 100.345; on GABARAP (setting [12]) it was 88.6207 and 93.1034. Further, the “compound titration GABARAP (displacement curve, FP signal)” value is 93.9655 and 97.069 on GABARAP (setting [13]); 96.7241 and 100.862 on GABARAP (setting [14]); 95.5172 and 99.1379 on GABARAP (setting [15]); 95.6897 and 96.8966 on GABARAP (setting [16]); 97.7586 and 100.69 at GABARAP (setting [17]). Moreover, the “compound titration GABARAPL1 (displacement curve, FP signal)” value at GABARAPL1 (setting [8]) was 17.7143 and 20.8571; on GABARAPL1 (setting [9]), 50 and 53.2857; on GABARAPL1 (setting [10]), 99.5714 and 102.429; at GABARAPL1 (log10 concentration [M] -5) it was 98.1429 and 100.714. The “FP tracer displacement curve signal (compound titration)” value at GABARAPL1 (setting [12]) is 94.7143 and 94.1429; at GABARAPL1 (setting [13]), 100 and 100.429; on GABARAPL1 (setting [14]) it was 100.857 and 101.429; at GABARAPL1 (setting [15]), 101.857 and 99.1429; at GABARAPL1 (setting [16]), 100 and 94.7143; on GABARAPL1 (setting [17]), 101.714 and 99.2857.
Take `CCC(Sc1nc(Cl)cc(Nc2nc(-c3ccc(Cl)cc3)cs2)n1)C(=O)O` (stereo not shown) [TH035]: at LC3A [5], the “% tracer bound @LC3A” value turned out to be 85%.
Same read-out and setting: in the case of `CCCCCCC(Sc1nc(Cl)cc(Nc2nc(C34CC5CC(CC(C5)C3)C4)cs2)n1)C(=O)O` (stereo not shown) [TH105] it was 84%.
On the same count and under the same terms, in the case of `CCCCCCC(Sc1nc(Cl)cc(Nc2nc(-c3ccc(Cl)cc3)cs2)n1)C(=O)O` (stereo not shown) [TH018] it was 81%; in that of `CCCCCCC(Sc1nc2ccc(NCc3ccc(-c4ccccc4)cc3)cc2s1)C(=O)O` (stereo not shown) [TH200], 72%; in that of `CCCCCCC(Sc1nc2ccc(NC(=O)c3ccc(C(C)(C)C)cc3)cc2s1)C(=O)O` (stereo not shown) [TH177], 85%.
